Results as given in patent publication US4954509A, “Isoquinoline derivatives and their use as analgesics” (Dr. Lo. Zambeletti S.p.A., priority 1988, dated 1990).
pKi: −log10 of the molar value. Counter-ions that a name gives are not always drawn. Like-named read-outs stand apart in the source and are kept apart here.

Columns and labels:
KAPPA opiate receptor = target: T1, KAPPA opiate receptor (Cavia porcellus, UniProt P41144); assay: opiate receptors binding, KAPPA (3H-Ethyl Ketocyclazocine, guinea pig brain homogenate)
T1 construct: fresh guinea pig brain homogenate; from tissue; host or cells: guinea pig whole brain without cerebellum, fresh homogenate
Method: Radio receptor binding to μ and K sites is performed on fresh guinea pig brain homogenate prepared according to Kosterlitz. (1981).
(§1) Whole brain without cerebellum is homogenized in 50 mM, Tris-buffer (pH 7.4 at 0° C.) and centrifuged at 49,000×g×10 min.
The pellet is then resuspended in the same buffer, incubated at 37° C. for 45 min. and centrifuged again. 1.9ml of the final homogenate (1:100 in Tris-pH 7.4, 0° C.) is used for the binding assay. Binding to […] sites (Magnan J., 1982) 1 3H [D-Ala2, MePhe4, Gly-o15]Enkephalin (3H-DAGO), an
is determined in the presence of 10-6M Naloxone. 1 Binding to K sites (Magnan J., 1982)
The binding to the K-sites is performed using 3H-Ethyl Ketocyclazocine, a non-selective benzomorphan compound which binds to μ, δ and K-sites, in the presence of 100nM of unlabelled DAGO and 100nM of the enkephalin analogue [DAla^2 -DLeu^5 ]Enkephalin (DADLE), to prevent μ and δ binding respectively.
Final homogenate with solutions of the cold ligand and of the labelled ligand is incubated for 40 min. at 25° C., filtered through Whatman GF/C glass filter discs and washed.
The radioactivity bound to the filters is counted by liquid scintillation spectrophotometry.
The non-specific binding is determined in the presence of 500nM of the benzomorphan non-selective compound Mr 2266.
The equilibrium dissociation constant (KD) and the maximum binding capacity (Bmax) are determined from the analysis of saturation curves, while the inhibition constant (Ki) is determined from the analysis of competition experiments (Hill 1910; Scatchard 1949; Cheng and Prusoff 1973; Gillan et al. 1980).

MU opiate receptor = target: T2, MU opiate receptor (Cavia porcellus, UniProt A0ACM8Q262); assay: opiate receptors binding, MU (3H-DAGO, guinea pig brain homogenate)
T2 construct: 3H-DAGO displacement
Method: Radio receptor binding to μ and K sites is performed on fresh guinea pig brain homogenate prepared according to Kosterlitz.
as §1
The pellet is then resuspended in the same buffer, incubated at 37° C. for 45 min. and centrifuged again. 1.9ml of the final homogenate (1:100 in Tris-pH 7.4, 0° C.) is used for the binding assay.
The filters are then dryed, solubilized in Filtercount and the radioactivity monitored. Non specific binding
is determined in the presence of 10-6M Naloxone.

mice [1] = assay: tail-flick test in mice; type: in vivo, mouse (male Charles River, Swiss Strain); conditions: Mus musculus, sc, 0.5 h, subcutaneous; calculated as the free base; 30 min pretreatment
Method: (B) Tail-flick test in mice
The methodology employed is based on that described by D'Amour and Smith, J. Pharmacol. Exp. Ther. 72, 74/1941.
Male Charles River mice (Swiss Strain), 22-34g body weight were used. Animals were allowed food and water ad libitum and were randomized into groups of 10 prior to experimentation.
Test compounds were dissolved in either distilled water or distilled water plus 0.1 M AMS and administered by the subcutaneous route in a final volume of 10 ml/Kg. Control animals received 10 ml/kg of the appropriate vehicle alone. Following a pretreatment period of 30 min., the mice were again placed under the heat source and the reaction tine re-determined.
Percentage quantal protection was determined as the number of mice in which the reaction time was doubled compared to pretreatment values, expressed as a percentage of the total number of mice in the group.

mice [2] = assay: p-phenylquinone-induced abdominal writhing test in mice; type: in vivo, mouse (male Charles River, Swiss Strain); conditions: Mus musculus, sc, 20 min; subcutaneous; calculated as the free base; 20 min pretreatment, p-phenylquinone 2 mg/Kg i.p.
Method: (A) P-phenylquinone-induced abdominal writhing test in mice
The methodology employed is based on that described by Sigmund et al, Proc. Soc. Exptl. Biol. 95, 729/1957, modified by Milne and Twomey, Agents and Actions, 10, 31/1980.
Male Charles River mice (Swiss Strain), 25-36g body weight, were used. Animals were allowed food and water ad libitum and were randomized into groups of 10 prior to experimentation. Test compounds were dissolved in either distilled water or distilled water plus 0.1 M AMS, and administered by the subcutaneous route in a final volume of 10 ml/Kg. Control animals received 10 ml/Kg of the appropriate vehicle alone. Following a pretreatment period of 20 min., mice were injected intraperitoneally with p-phenylquinone, 2 mg/Kg at 37° C. in a final volume of […]. […] During this period the number of abdominal writhing responses per animal were recorded where writhing consists of an intermittent contraction of the abdomen associated with hind leg extension.
The degree of antinociceptive protection afforded by the test compound was determined as the mean number of writhing responses observed in the treated group (T) expressed as a percentage of the mean number of writhing responses in the control group (C) according to the following formula:
[1-(T/C]×100%=% graded protection

[3] = fresh guinea pig brain homogenate, 25° C., 40 min, read-out: OPIATE RECEPTORS BINDING MU Ki
[4] = fresh guinea pig brain homogenate, 3H-Ethyl Ketocyclazocine with 100nM DAGO and 100nM DADLE, 25° C., 40 min, read-out: OPIATE RECEPTORS BINDING KAPPA Ki
[5] = read-out: OPIATE RECEPTORS BINDING MU Ki, fresh guinea pig brain homogenate, 25° C., 40 min

T1 sequence (P41144 whole entry): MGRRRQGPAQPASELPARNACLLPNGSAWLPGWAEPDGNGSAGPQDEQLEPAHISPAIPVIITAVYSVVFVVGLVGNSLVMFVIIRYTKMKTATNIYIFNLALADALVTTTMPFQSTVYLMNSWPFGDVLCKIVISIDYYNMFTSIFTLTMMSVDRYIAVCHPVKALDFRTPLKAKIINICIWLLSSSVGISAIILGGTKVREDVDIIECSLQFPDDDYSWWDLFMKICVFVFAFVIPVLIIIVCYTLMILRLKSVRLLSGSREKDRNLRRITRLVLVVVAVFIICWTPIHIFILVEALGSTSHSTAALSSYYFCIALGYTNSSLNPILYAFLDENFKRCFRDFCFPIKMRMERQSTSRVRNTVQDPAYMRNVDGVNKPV
T2 sequence (A0ACM8Q262 1-400): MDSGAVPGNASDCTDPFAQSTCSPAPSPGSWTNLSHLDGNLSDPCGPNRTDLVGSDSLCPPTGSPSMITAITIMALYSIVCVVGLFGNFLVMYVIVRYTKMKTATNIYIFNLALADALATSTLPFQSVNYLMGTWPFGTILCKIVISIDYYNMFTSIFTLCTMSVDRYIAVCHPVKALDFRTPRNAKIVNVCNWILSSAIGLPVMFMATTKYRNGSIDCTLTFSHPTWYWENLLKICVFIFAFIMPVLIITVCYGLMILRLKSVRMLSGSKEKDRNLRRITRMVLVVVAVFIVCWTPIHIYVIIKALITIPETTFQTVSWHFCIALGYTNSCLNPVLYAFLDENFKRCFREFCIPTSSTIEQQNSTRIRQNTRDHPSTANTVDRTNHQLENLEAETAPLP

Compound O=C(Cc1ccc(Cl)c(Cl)c1)N1CCc2cccc(Cl)c2C1CN1CCCC1 (centres unmarked) [Example 27, 1-(pyrrolidin-1-yl)methyl-2-(3,4-dichlorophenyl)acetyl-8-chloro-1,2,3,4-tetrahydroisoquinoline hydrochloride 1/4hydrate] has a pKi (KAPPA opiate receptor) of 8.26, a pKi (MU opiate receptor; [3]) of 6.43 and an ED50 (mice [1]) of 0.092 mg/kg.

Work on CN(C)CC1c2cccc(O)c2CCN1C(=O)Cc1ccc(Cl)c(Cl)c1 (centres unmarked) [Example 10, 1-dimethylaminomethyl-2-(3,4-dichlorophenyl) acetyl-5-hydroxy-1,2,3,4-tetrahydroisoquinoline.] yielded a pKi (KAPPA opiate receptor; [4]) of 9.38, a pKi (MU opiate receptor; [5]) of 8.44 and an ED50 (mice [1]) of 0.088 mg/kg.

For O=C(Cc1ccc(Cl)c(Cl)c1)N1CCc2c(O)cccc2C1CN1CCCC1 (centres unmarked) [Example 5, 1-(pyrrolidin-1-yl)methyl-2-(3,4-dichlorophenyl)acetyl-5-hydroxy-1,2,3,4-tetrahydroisoquinoline], the ED50 (mice [2]) was 0.005 mg/kg, the pKi (KAPPA opiate receptor; [4]) was 9.37 and the pKi (MU opiate receptor; [5]) was 9.16. For the same compound, the ED50 (mice [1]) was 0.009 mg/kg.

O=C(Cc1ccc(Cl)c(Cl)c1)N1CCc2cc(O)ccc2C1CN1CCCC1 (centres unmarked) [Example 16, 1-(pyrrolidin-1-yl)methyl-2-(3,4-dichlorophenyl)acetyl-6-hydroxy-1,2,3,4-tetrahydroisoquinoline.] gave a pKi (KAPPA opiate receptor) of 8.81, a pKi (MU opiate receptor; [3]) of 6.99 and an ED50 (mice [1]) of 0.24 mg/kg.

Work on C[C@H]1CN(C(=O)Cc2ccc(Cl)c(Cl)c2)[C@@H](CN2CCCC2)c2ccccc21 (relative stereo) [Example 4, 1-(pyrrolidin-1-yl)methyl-2-(3,4-dichlorophenyl)acetyl-4-methyl-1,2,3,4-tetrahydroisoquinoline hydrochloride. Diastereoisomer CIS] yielded an ED50 (mice [2]) of 0.282 mg/kg, a pKi (KAPPA opiate receptor; [4]) of 7.85 and a pKi (MU opiate receptor; [5]) of 5.94. For the same compound, the ED50 (mice [1]) was 0.459 mg/kg.

CC1Cc2ccccc2C(CN2CCCC2)N1C(=O)Cc1ccc(Cl)c(Cl)c1 (single isomer, unassigned) [Example 42, (-)-1-(pyrrolidin-1-yl)methyl-2-(3,4-dichlorophenyl)acetyl-3-methyl-1,2,3,4-tetrahydroisoquinoline D(-) tartrate] was tested, and the ED50 (mice [2]) was 0.01 mg/kg, the pKi (KAPPA opiate receptor; [4]) was 8.65 and the pKi (MU opiate receptor; [5]) was 7.95. It also gave an ED50 (mice [1]) of 0.021 mg/kg.

With COc1cccc2c1CCN(C(=O)Cc1ccc(Cl)c(Cl)c1)C2CN1CCCC1 (centres unmarked) [Example 6, 1-(pyrrolidin-1-Yl)methyl-2-(3,4-dichlorophenyl)acetyl-5-methoxy-1,2,3,4-tetrahydroisoquinoline] the ED50 (mice [2]) was 0.047 mg/kg, the pKi (KAPPA opiate receptor) was 8.40 and the pKi (MU opiate receptor; [3]) was 6.56. The ED50 (mice [1]) was 0.054 mg/kg.

C[C@@H]1Cc2ccccc2[C@H](CN2CCCC2)N1C(=O)Cc1ccc(Cl)c(Cl)c1 (relative stereo) [Example 1, 1-(pyrrolidin-1-yl)methyl-2-(3,4-dichlorophenyl)acetyl-3-methyl-1,2,3,4-tetrahydroisoquinoline hydrochloride 1/3 hydrate. Diastereoisomer CIS] showed an ED50 (mice [2]) of 0.021 mg/kg, a pKi (KAPPA opiate receptor; [4]) of 8.58 and a pKi (MU opiate receptor; [5]) of 7.83. It also gave an ED50 (mice [1]) of 0.033 mg/kg.

In the case of C[C@H]1Cc2ccccc2[C@H](CN2CCCC2)N1C(=O)Cc1ccc(Cl)c(Cl)c1 (relative stereo) [Example 2, 1-(pyrrolidin-1-yl)methyl-2-(3,4-dichlorophenyl)acetyl-3-methyl-1,2,3,4-tetrahydroisoquinoline hydrochloride hemihydrate acetone. Diastereoisomer TRANS], the pKi (KAPPA opiate receptor; [4]) was 7.30 to 9.00 and the ED50 (mice [1]) was over 1 mg/kg.

C[C@@H]1CN(C(=O)Cc2ccc(Cl)c(Cl)c2)[C@@H](CN2CCCC2)c2ccccc21 (relative stereo) [Example 3, 1-(pyrrolidin-1-yl)methyl-2-(3,4-dichlorophenyl)acetyl-4-methyl-1,2,3,4-tetrahydroisoquinoline hydrochloride. Diastereoisomer TRANS] showed an ED50 (mice [2]) of 0.036 mg/kg, a pKi (KAPPA opiate receptor; [4]) of 8.32 and a pKi (MU opiate receptor; [5]) of 6.91. The ED50 (mice [1]) was 0.046 mg/kg.

Compound O=C(Cc1ccc(C(F)(F)F)cc1)N1CCc2c(O)cccc2C1CN1CCCC1 (centres unmarked) [Example 34, 1-(pyrrolidin-1-yl)methyl-2-(4-trifluoromethylphenyl)acetyl5-hydroxy-1,2,3,4-tetrahydroisoquinoline hydrochloride hemihydrate] has an ED50 (mice [2]) of 0.0023 mg/kg, a pKi (MU opiate receptor; [5]) of 9.23 and an ED50 (mice [1]) of 0.011 mg/kg.

For O=C(Cc1ccc(Cl)c(Cl)c1)N1CCc2c(Cl)cccc2C1CN1CCCC1 (centres unmarked) [Example 7, 1-(pyrrolidin-1-yl)methyl-2-(3,4-dichlorophenyl)acetyl-5-chloro-1,2,3,4-tetrahydroisoquinoline hydrochloride], the pKi (KAPPA opiate receptor) was 7.36, the pKi (MU opiate receptor; [3]) was 5.80 and the ED50 (mice [1]) was 0.836 mg/kg.

CC1CN(C(=O)Cc2ccc(Cl)c(Cl)c2)C(CN2CCCC2)c2ccccc21 (single isomer, unassigned) [Example 44, (-)-1-(pyrrolidin-1-yl)methyl-2-(3,4-dichlorophenyl)acetyl-4-methyl-1,2,3,4-tetrahydroisoquinoline D(-) tartrate] was tested, and the ED50 (mice [2]) was 0.013 mg/kg, the pKi (MU opiate receptor; [5]) was 7.25 and the ED50 (mice [1]) was 0.025 mg/kg.

Compound COc1cccc2c1CCN(C(=O)Cc1ccc(C(F)(F)F)cc1)C2CN1CCCC1 (centres unmarked) [Example 33, 1-(pyrrolidin-1-yl)methyl-2-(4-trifluoromethylphenyl)acetyl5-methoxy-1,2,3,4-tetrahydroisoquinoline hydrochloride] has an ED50 (mice [2]) of 0.06 mg/kg, a pKi (MU opiate receptor; [3]) of 6.85 and an ED50 (mice [1]) of 0.306 mg/kg.

In the case of O=C(Cc1ccc(C(F)(F)F)cc1)N1CCc2c(O)cccc2C1CN1CCCCC1 (centres unmarked) [Example 37, 1-(piperidin-1-yl)methyl-2-(4-trifluoromethylphenyl)acetyl5-hydroxy-1,2,3,4-tetrahydroisoquinoline hydrochloride], the ED50 (mice [2]) was 0.0013 mg/kg, the pKi (MU opiate receptor; [5]) was 8.27 and the ED50 (mice [1]) was 0.007 mg/kg.

O=C(Cc1ccc(Cl)c(Cl)c1)N1CCc2c(O)cccc2C1CN1CCCCC1 (centres unmarked) [Example 38, 1-(piperidin-1-yl)methyl-2-(3,4-dichlorophenyl)acetyl-5-hydroxy-1,2,3,4-tetrahydroisoquinoline hydrochloride] showed an ED50 (mice [2]) of 0.004 mg/kg, a pKi (MU opiate receptor; [5]) of 7.94 and an ED50 (mice [1]) of 0.01 mg/kg.
